Entries after “also recorded” stand apart in the source; their conditions may differ. Read-outs that look alike come from different tables or passages of the source.
Assays:
[1] = tested on: HCT116; assay: Cytotoxic activity on HCT116; assay type: cell-based; conditions: for IC50: Homo sapiens, read-out: HCT116 IC50; for antiproliferative / cytotoxic activity in words: comment on Table 1
Protocol: (§1) The cytotoxic activity of the prepared compounds was evaluated on various human cancer cell lines. The selected line was incubated at 37° C. in the presence of one of the novel compounds, added to the culture medium at various concentrations.

[2] = tested on: HDACs 1 to 11; assay: Inhibition of HDACs 1 to 11 (panel); assay type: biochemical; conditions: percentage inhibition at test concentration of 1.0^−5 M
[3] = tested on: Tubulin; assay: Inhibition of tubulin polymerisation (ITP); assay type: biochemical, sheep; conditions: tubulin 10 μM; inhibition of maximum assembly rate
Protocol: To verify whether the antiproliferative activities of novel molecules 2 and 3 correlate with their anti-tubulin effects, their ability to inhibit tubulin polymerisation into microtubules was measured in vitro. Tubulin was purified from sheep brains according to the Shelanski method by two assembly-disassembly cycles. The stock solution (15-20 mg/mL), stored at −196° C., is thawed and diluted in the assembly buffer (0.1 M MES, 0.5 mM MgCl2, 1 mM EGTA, and 1 mM GTP, pH 6.6) to a final concentration of 10 μM. Tubulin assembly was monitored by fluorescence on 96-well plates according to the method of Barron et al. The tubulin solution (10 μM, 100 μL per well) was supplemented with inhibitor (DMSO, 1 μL) and incubated for 45 min at room temperature. GTP (1 mM final) was then added, the solution was rapidly mixed and the fluorescence (λex=350 nm, λem=440 nm) was measured on a Wallac Victor fluorimeter (Perkin Elmer). Fifty-percent inhibition of the maximum assembly rate (IC50) was determined in duplicate or triplicate on 10 concentrations flanking the IC50. For comparison, deoxypodophyllotoxin and isoCA-4 were used as positive controls.

[4] = target: T1, HDAC11 (Homo sapiens, UniProt Q96DB2); assay: Inhibition of HDAC11 activity; assay type: biochemical; conditions: FIG. 5
T1 sequence (Q96DB2 1-347): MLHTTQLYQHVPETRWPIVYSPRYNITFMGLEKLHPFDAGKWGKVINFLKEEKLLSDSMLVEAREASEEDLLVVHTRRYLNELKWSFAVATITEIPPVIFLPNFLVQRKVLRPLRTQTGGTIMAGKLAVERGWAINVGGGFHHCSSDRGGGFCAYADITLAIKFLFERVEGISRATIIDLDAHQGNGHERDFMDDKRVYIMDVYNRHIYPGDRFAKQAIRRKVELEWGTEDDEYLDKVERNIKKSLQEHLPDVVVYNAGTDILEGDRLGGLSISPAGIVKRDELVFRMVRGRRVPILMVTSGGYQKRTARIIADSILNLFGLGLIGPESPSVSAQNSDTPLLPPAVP

[5] = tested on: K562R; assay: Cytotoxic activity on K562R; assay type: cell-based; conditions: Homo sapiens, K-562R; 72 hours of incubation; imatinib-resistant
Protocol: as §1

[6] = tested on: BxPC3; assay: Cytotoxic activity on BxPC3; assay type: cell-based; conditions: Homo sapiens, BXPC-3; 72 hours of incubation; read-out: Cytotoxicity IC50 BxPC3
Protocol: as §1

[7] = tested on: U2OS; assay: Cytotoxic activity on U2OS; assay type: cell-based; conditions: Homo sapiens, 72 hours of incubation, read-out: Cytotoxicity IC50 U2OS
Protocol: as §1

[8] = tested on: U87; assay: Cytotoxic activity on U87; assay type: cell-based; conditions: Homo sapiens, U-87 MG; 72 hours of incubation; read-out: Cytotoxicity IC50 U87
Protocol: as §1

[9] = tested on: PC3; assay: Cytotoxic activity on PC3; assay type: cell-based; conditions: Homo sapiens, PC-3; 72 hours of incubation; read-out: Cytotoxicity IC50 PC3
Protocol: as §1

[10] = target: T2, HDAC8 (Homo sapiens, UniProt Q9BY41); assay: Inhibition of HDAC8 activity; assay type: biochemical
T2 sequence (Q9BY41 1-377): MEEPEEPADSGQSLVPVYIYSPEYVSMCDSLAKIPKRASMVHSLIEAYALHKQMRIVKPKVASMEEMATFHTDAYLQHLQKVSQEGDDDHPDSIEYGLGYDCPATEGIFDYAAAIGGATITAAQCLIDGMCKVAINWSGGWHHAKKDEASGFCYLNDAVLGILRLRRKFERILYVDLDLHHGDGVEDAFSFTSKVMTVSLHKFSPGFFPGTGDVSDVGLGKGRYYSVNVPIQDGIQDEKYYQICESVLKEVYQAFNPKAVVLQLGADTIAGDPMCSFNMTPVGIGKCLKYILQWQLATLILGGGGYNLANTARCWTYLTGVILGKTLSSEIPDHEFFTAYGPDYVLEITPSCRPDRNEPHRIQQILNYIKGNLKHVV

[11] = tested on: A549; assay: Cytotoxic activity on A549; assay type: cell-based; conditions: Homo sapiens, 72 hours of incubation, read-out: Cytotoxicity IC50 A549
Protocol: as §1

[12] = tested on: MCF7; assay: Cytotoxic activity on MCF7; assay type: cell-based; conditions: Homo sapiens, 72 hours of incubation, read-out: Cytotoxicity IC50 MCF7
Protocol: as §1

[13] = tested on: other human tumour lines; assay: Cytotoxicity to other human tumour lines (panel); assay type: cell-based; conditions: A549, K562, MCF7, PC3, U87, U2OS, SOJ6, BxPC-3, MiaPaCa-2, read-out: IC50 values across other human tumour lines
Protocol: as §1

[14] = tested on: MiaPaCa 2; assay: Cytotoxic activity on MiaPaCa 2; assay type: cell-based; conditions: Homo sapiens, MIA PaCa-2; 72 hours of incubation; read-out: Cytotoxicity IC50 MiaPaCa 2
Protocol: as §1

[15] = tested on: SOJ6; assay: Cytotoxic activity on SOJ6; assay type: cell-based; conditions: Homo sapiens; 72 hours of incubation; read-out: Cytotoxicity IC50 SOJ6
Protocol: as §1

[16] = tested on: K562; assay: Cytotoxic activity on K562; assay type: cell-based; conditions: Homo sapiens, 72 hours of incubation, read-out: Cytotoxicity IC50 K562
Protocol: as §1

[17] = tested on: many human cancer lines; conditions: many human cancer lines and resistant lines; read-out: cytotoxic IC50; cited from earlier work
[18] = HCT-116, 72 hours of incubation

SMILES | IC50 [1, 18] [nM] | antiproliferative / cytotoxic activity in words [1] | selective inhibitory activity among HDACs 1 to 11 [2] | IC50 [3] [nM] | other results
C=C(c1cc(OC)c(OC)c(OC)c1)c1ccc2c(c1)c(/C=C/C(=O)NO)cn2C [Compound 11, (E)-N-Hydroxy-3-(1-methyl-5-(1-(3,4,5-trimethoxyphenyl)vinyl)-1H-indol-3-yl)acrylamide] | 2.2 ± 0.26 | excellent antiproliferative activity | selective inhibitory activity against HDAC6 and HDAC8; also recorded: selective activity for HDAC6 and HDAC8 | 3700 ± 500 | 
C=C(c1ccc(OC)c(C#CCCC(=O)NO)c1)c1cc(OC)c(OC)c(OC)c1 [Compound 3, N-Hydroxy-5-(2-methoxy-5-(1-(3,4,5-trimethoxyphenyl)vinyl)phenyl)pent-4-ynamide] | 35 | cytotoxic at nanomolar concentrations | selective inhibitory activity against HDAC8 and HDAC11; also recorded: selective activity for HDAC8 and HDAC11 | 1700 | IC50 [4]: 11000 nM; IC50 [5]: 33 nM
C=C(c1ccc(OC)c(/C=C/C(=O)NO)c1)c1cc(OC)c(OC)c(OC)c1 [Compound 2, (E)-N-Hydroxy-3-(2-methoxy-5-(1-(3,4,5-trimethoxyphenyl)vinyl)phenyl)acrylamide] | 2.5 |  | selective inhibitory activity against HDAC8; also recorded: selective activity for HDAC8 and HDAC11 | 1600 | IC50 [6]: 2.9 nM; IC50 [7]: 1.9 nM; IC50 [8]: 1.6 nM; IC50 [9]: 2.4 nM; IC50 [10]: 340 nM; IC50 [11]: 1.7 nM; IC50 [12]: 2 nM; IC50 [13]: 1.6 to 6.8 nM; IC50 [14]: 5.1 nM; IC50 [15]: 6.8 nM; IC50 [16]: 1.6 nM; IC50 [5]: 1.6 nM
COc1ccc(/C=C\c2cc(OC)c(OC)c(OC)c2)cc1O [CA-4, combretastatin A-4] |  |  |  |  | IC50 [17]: 1 to 2 nM
C=C(c1cc(OC)c(OC)c(OC)c1)c1ccc2c(c1)c(C(=O)NO)cn2C [Compound 25, N-Hydroxy-1-methyl-5-(1-(3,4,5-trimethoxyphenyl)vinyl)-1H-indole-3-carboxamide] | 30 ± 1.5 | excellent antiproliferative activity |  | 7300 ± 3300 | 
C=C(c1cc(OC)c(OC)c(OC)c1)c1ccc2c(ccn2CCC(=O)NO)c1 [Compound 44, N-Hydroxy-3-(5-(1-(3,4,5-trimethoxyphenyl)vinyl)-1H-indol-1-yl)propanamide] | 393 ± 4.1 |  |  | 22000 ± 2000 | 
C=C(c1cc(OC)c(OC)c(OC)c1)c1ccc(OC)cc1/C=C/C(=O)NO [Compound 8, (E)-N-Hydroxy-3-(5-methoxy-2-(1-(3,4,5-trimethoxyphenyl)vinyl)phenyl)acrylamide] | 2 ± 0.1 |  | selective inhibitory activity against HDAC6, HDAC8 and HDAC11; also recorded: selective activity for HDAC6, HDAC8 and HDAC11 | 2100 ± 400 | 
C=C(c1ccc(OC)c(O)c1)c1cc(OC)c(OC)c(OC)c1 [isoCA-4, Isocombretastatin A-4, reference compound] |  |  |  | 1800 ± 400 | IC50 ([1]; HCT-116, 72 h): 2 nM
C=C(c1cc(OC)c(OC)c(OC)c1)c1ccc2c(c1)cc(C(=O)NO)n2C [Compound 43, N-Hydroxy-1-methyl-5-(1-(3,4,5-trimethoxyphenyl)vinyl)-1H-indole-2-carboxamide] | 36 ± 4 | excellent antiproliferative activity |  | 81000 ± 15000 | 
C=C(c1cc(OC)c(OC)c(OC)c1)c1ccc(OC)c(/C=C/C(=O)NO)n1 [Compound 17, (E)-N-Hydroxy-3-(3-methoxy-6-(1-(3,4,5-trimethoxyphenyl)vinyl)pyridin-2-yl)acrylamide] | 37.2 ± 0.6 | excellent antiproliferative activity |  | 7500 ± 1500 | 
C=C(c1ccc(OC)c(C#CCCCC(=O)NO)c1)c1cc(OC)c(OC)c(OC)c1 [Compound 4, N-Hydroxy-6-(2-methoxy-5-(1-(3,4,5-trimethoxyphenyl)vinyl)phenyl)hex-5-ynamide] | 372 ± 5 |  |  | 18000 ± 1200 | 
C=C(c1cc(OC)c(OC)c(OC)c1)c1ccc2c(c1)cc(/C=C/C(=O)NO)n2C [Compound 12, (E)-N-Hydroxy-3-(1-methyl-5-(1-(3,4,5-trimethoxyphenyl)vinyl)-1H-indol-2-yl)acrylamide] | 12 ± 2.5 | excellent antiproliferative activity | selective inhibitory activity against HDAC6, HDAC8 and HDAC11; also recorded: selective activity for HDAC6, HDAC8 and HDAC11 | 5400 ± 1200 | 
C=C(c1cc(OC)c(OC)c(OC)c1)c1ccc(OC)c(C(=O)NO)c1 [Compound 1, N-Hydroxy-2-methoxy-5-(1-(3,4,5-trimethoxyphenyl)vinyl)benzamide] | 233 ± 22 |  |  | 20000 ± 1200 | 

Source: US11014871B2, ““Multi-target” compounds with inhibitory activity towards histone deacetylases and tubulin polymerisation, for use in the treatment of cancer” (UNIVERSITE PARIS-SUD, priority 2016, dated 2021)
